Source: the supplement of paper PMC11208160

Experiment: recombinant UMI read abundance after kanamycin selection (control-corrected) (log10(CPM+1)); higher = more efficient recombination; extreme values may be limits of the assay; sequences stand for … in AGTGCAGAGAAAATCGGCCAGTTTTCTCTGCCTGCAGTCCGCATGCCGTGGGACCCCTTGGGTTCTAACCTGTTGCCTAGATTTATGCAGCGGACTGCCTTTCTCCCAAAGTGATAAACCGG…AGGTTGGTTTCACT; site = the 11-nt donor
In short: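 Sequenced counts of recombinant UMIs were turned into CPM, averaged across replicates and scaled with control-derived factors. The reported figure is log10(CPM+1). Those UMIs, each 12 nt long, tagged donor and donor-binding-loop pairs on a plasmid with a promoterless kanamycin gene, screened as a pool in Escherichia coli with IPTG (0.07 mM) plus kanamycin or without selection.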
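Further: IS621 bridge recombinase in Escherichia coli cells against a fixed T5 target plasmid.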

| Sequence | recombinant UMI read abundance (log10) |
| --- | --- |
| CTAGTATCATGGACCGGTTTTCCCGGTAATCCGTATTTGAC (site CTCGAATCTGT) | 0 |
| CTAGTATCATGGACCGGTTTTCCCGGTAATCCGTATTTGAC (site CTCGTAACTGT) | 0 |
| CTAGTATCATGGACCGGTTTTCCCGGTAATCCGTATTTGAC (site CTCGTATCTCT) | 0.007 |
| CTAGTATCATGGACCGGTTTTCCCGGTAATCCGTATTTGAC (site CTCGTATCTGA) | 0 |
| CTAGTATCATGGACCGGTTTTCCCGGTAATCCGTATTTGAC (site CTCGTATCTGT) | 0.0723 |
| CTAGTATCATGGACCGGTTTTCCCGGTAATCCGTATTTGAC (site CTCGTCTCTGT) | 0 |
| CTAGTATCATGGACCGGTTTTCCCGGTAATCCGTATTTGAC (site CTGCTATCTGT) | 0 |
| CTAGTATCATGGACCGGTTTTCCCGGTAATCCGTATTTGAC (site CTGGCATCTGT) | 0 |
| CTAGTATCATGGACCGGTTTTCCCGGTAATCCGTATTTGAC (site CTGGTAGCTGT) | 0 |
| CTAGTATCATGGACCGGTTTTCCCGGTAATCCGTATTTGAC (site CTGGTATCTGG) | 0 |
| CTAGTATCATGGACCGGTTTTCCCGGTAATCCGTATTTGAC (site CTGGTATCTGT) | 0 |
| CTAGTATCATGGACCGGTTTTCCCGGTAATCCGTATTTGAC (site CTGGTATCTTT) | 0.0145 |
| CTAGTATCATGGACCGGTTTTCCCGGTAATCCGTATTTGAC (site CTGGTTTCTGT) | 0 |
| CTAGTATCATGGACCGGTTTTCCCGGTAATCCGTATTTGAC (site CTTGGATCTGT) | 0 |
| CTAGTATCATGGACCGGTTTTCCCGGTAATCCGTATTTGAC (site CTTGTACCTGT) | 0.169 |
| CTAGTATCATGGACCGGTTTTCCCGGTAATCCGTATTTGAC (site CTTGTATCTAT) | 0 |
| CTAGTATCATGGACCGGTTTTCCCGGTAATCCGTATTTGAC (site CTTGTATCTGC) | 0 |
| CTAGTATCATGGACCGGTTTTCCCGGTAATCCGTATTTGAC (site CTTGTATCTGT) | 1.57 |
| CTAGTATCATGGACCGGTTTTCCCGGTAATCCGTATTTGAC (site CTTGTGTCTGT) | 0 |
| CTAGTATCATGGACCGGTTTTCCCGGTAATCCGTATTTGAC (site CTTTTATCTGT) | 1 |
| CTAGTATCATGGACCGGTTTTCCCGGTAATCCGTATTTGAC (site GGAGTATCTGT) | 2.07 |
| CTAGTATCATGGACCGGTTTTCCCGGTAATCCGTATTTGAC (site GTAGGATCTGT) | 0.00691 |
| CTAGTATCATGGACCGGTTTTCCCGGTAATCCGTATTTGAC (site GTAGTACCTGT) | 0 |

| Sequence | recombinant UMI read abundance (log10) |
| --- | --- |
| CTAGTATCATGGACCGGTTTTCCCGGTAATCCGTATTTGAC (site GTAGTATCTAT) | 0 |
| CTAGTATCATGGACCGGTTTTCCCGGTAATCCGTATTTGAC (site GTAGTATCTGC) | 0 |
| CTAGTATCATGGACCGGTTTTCCCGGTAATCCGTATTTGAC (site GTAGTATCTGT) | 0 |
| CTAGTATCATGGACCGGTTTTCCCGGTAATCCGTATTTGAC (site GTAGTGTCTGT) | 0.0419 |
| CTAGTATCATGGACCGGTTTTCCCGGTAATCCGTATTTGAC (site GTATTATCTGT) | 0 |
| CTAGTATCATGGACCGGTTTTCCCGGTAATCCGTATTTGAC (site GTTGTATCTGT) | 0.0569 |
| CTAGTATCATGGACCGGTTTTCCCGGTAATCCGTATTTGAC (site TAAGTATCTGT) | 0 |
| CTAGTATCATGGACCGGTTTTCCCGGTAATCCGTATTTGAC (site TTAATATCTGT) | 0 |
| CTAGTATCATGGACCGGTTTTCCCGGTAATCCGTATTTGAC (site TTAGAATCTGT) | 0 |
| CTAGTATCATGGACCGGTTTTCCCGGTAATCCGTATTTGAC (site TTAGTAACTGT) | 0 |
| CTAGTATCATGGACCGGTTTTCCCGGTAATCCGTATTTGAC (site TTAGTATCTCT) | 0 |
| CTAGTATCATGGACCGGTTTTCCCGGTAATCCGTATTTGAC (site TTAGTATCTGA) | 0 |
| CTAGTATCATGGACCGGTTTTCCCGGTAATCCGTATTTGAC (site TTAGTATCTGT) | 1.71 |
| CTAGTATCATGGACCGGTTTTCCCGGTAATCCGTATTTGAC (site TTAGTCTCTGT) | 0 |
| CTAGTATCATGGACCGGTTTTCCCGGTAATCCGTATTTGAC (site TTCGTATCTGT) | 0 |
| CTAGTATCATGGACCGGTTTTCCCGGTAATCCGTATTTGAT (site CTAGTATCTAT) | 2.21 |
| CTAGTATCATGGACCGGTTTTCCCGGTAATCCGTATTTGAT (site CTAGTATCTCT) | 0.557 |
| CTAGTATCATGGACCGGTTTTCCCGGTAATCCGTATTTGAT (site CTAGTATCTGT) | 1.31 |
| CTAGTATCATGGACCGGTTTTCCCGGTAATCCGTATTTGAT (site CTAGTATCTTT) | 1.07 |
| CTAGTATCATGGACCGGTTTTCCCGGTAATCCGTATTTGCA (site CTAGTATCTGT) | 0.00642 |
| CTAGTATCATGGACCGGTTTTCCCGGTAATCCGTATTTGCA (site CTAGTATCTTG) | 2.72 |
| CTAGTCCCATGGACCGGTTTTCCCGGTAATCCGTATTTGCT (site CTAGTCCCTAG) | 1.79 |
| CTAGTCCCATGGACCGGTTTTCCCGGTAATCCGTATTTGGA (site CTAGTCCCTTC) | 0.281 |

| Sequence | recombinant UMI read abundance (log10) |
| --- | --- |
| CTAGTCGCATGGACCGGTTTTCCCGGTAATCCGTATTTGCG (site ATAGTCGCTCG) | 0.00637 |
| CTAGTCGCATGGACCGGTTTTCCCGGTAATCCGTATTTGCG (site CTAGTCGCTCG) | 0.966 |
| CTAGTCGCATGGACCGGTTTTCCCGGTAATCCGTATTTGCG (site GTAGTCGCTCG) | 0 |
| CTAGTCGCATGGACCGGTTTTCCCGGTAATCCGTATTTGCG (site TTAGTCGCTCG) | 0.0191 |
| CTAGTCTCATGGACCGGTTTTCCCGGTAATCCGTATTTGAC (site CTAGTATCTGT) | 0.627 |
| CTAGTCTCATGGACCGGTTTTCCCGGTAATCCGTATTTGAC (site CTAGTCTCTGT) | 2.93 |
| CTAGTCTCATGGACCGGTTTTCCCGGTAATCCGTATTTGAC (site CTAGTGTCTGT) | 0 |
| CTAGTCTCATGGACCGGTTTTCCCGGTAATCCGTATTTGAC (site CTAGTTTCTGT) | 0.799 |
| CTAGTGTCATGGACCGGTTTTCCCGGTAATCCGTATTTGAC (site CTAGTATCTGT) | 1.23 |
| CTAGTGTCATGGACCGGTTTTCCCGGTAATCCGTATTTGAC (site CTAGTCTCTGT) | 0 |
| CTAGTGTCATGGACCGGTTTTCCCGGTAATCCGTATTTGAC (site CTAGTGTCTGT) | 0 |
| CTAGTGTCATGGACCGGTTTTCCCGGTAATCCGTATTTGAC (site CTAGTTTCTGT) | 0 |
| CTAGTTACATGGACCGGTTTTCCCGGTAATCCGTATTTGTC (site CTAGTTACTGA) | 2.57 |
| CTATAAACATGGACCGGTTTTCCCGGTAATCCGTATTTGGA (site CTATAAACTTC) | 2.34 |
| CTATATGCATGGACCGGTTTTCCCGGTAATCCGTATTTGTA (site CTATATGCTTA) | 2.55 |
| CTATCATCATGGACCGGTTTTCCCGGTAATCCGTATTTGCG (site CGATCATCTAG) | 0 |
| CTATCATCATGGACCGGTTTTCCCGGTAATCCGTATTTGCG (site CTATCATCTCG) | 1.87 |
| CTATGATCATGGACCGGTTTTCCCGGTAATCCGTATTTGCG (site CTATGATCTCG) | 3.16 |
| CTATTACCATGGACCGGTTTTCCCGGTAATCCGTATTTGAC (site CTAGTATCTGT) | 0 |
| CTATTACCATGGACCGGTTTTCCCGGTAATCCGTATTTGAC (site CTATTACCTGT) | 0 |
| CTATTCCCATGGACCGGTTTTCCCGGTAATCCGTATTTGTT (site CTATTCCCTAA) | 1.42 |
| CTCAAGACATGGACCGGTTTTCCCGGTAATCCGTATTTGGG (site CTCAAGACTCC) | 0 |
